Reference: the supplement of paper PMC10307832

Key:
Test in all cases: relative viability (nuclei count vs DMSO), 5 days (fraction); higher = more cells survive
GSK-J4 + Vorinostat = compound: CCOC(=O)CCNc1cc(N2CCc3ccccc3CC2)nc(-c2ccccn2)n1 [GSK-J4] + O=C(CCCCCCC(=O)Nc1ccccc1)NO [Vorinostat] (partner 1 µM)
How it was run: (§1)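 Relative viability equals treated-well nuclei counts divided by vehicle-well nuclei counts. Counts came from 4× images of lung cancer cell lines grown in 1536-well plates for 5 days after pin-tool dosing on the day after seeding. Dosing used one drug alone or a fixed anchor-drug dose plus five library-drug doses (not always all listed) in √10 steps, and values are medians of duplicate plates.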

AZ3146 + Luminespib = compound: CN1CCC(CC1)OC2=CC(=C(C=C2)NC3=NC=C4C(=N3)N(C(=O)N4C)C5CCCC5)OC [AZ3146] + CCNC(=O)c1noc(-c2cc(C(C)C)c(O)cc2O)c1-c1ccc(CN2CCOCC2)cc1 [Luminespib] (partner 0.01 µM)
How it was run: as §1

AZ3146 + Tozasertib = compound: CN1CCC(CC1)OC2=CC(=C(C=C2)NC3=NC=C4C(=N3)N(C(=O)N4C)C5CCCC5)OC [AZ3146] + Cc1cc(Nc2cc(N3CCN(C)CC3)nc(Sc3ccc(NC(=O)C4CC4)cc3)n2)n[nH]1 [Tozasertib] (partner 0.1 µM)
How it was run: as §1

AZ3146 + Olaparib = compound: CN1CCC(CC1)OC2=CC(=C(C=C2)NC3=NC=C4C(=N3)N(C(=O)N4C)C5CCCC5)OC [AZ3146] + O=C(c1cc(Cc2n[nH]c(=O)c3ccccc23)ccc1F)N1CCN(C(=O)C2CC2)CC1 [Olaparib] (partner 8 µM)
How it was run: as §1

Cell Line | relative viability (GSK-J4 + Vorinostat; first compound 0.5 µM) | relative viability (GSK-J4 + Vorinostat; first compound 1.581 µM) | relative viability (GSK-J4 + Vorinostat; first compound 5 µM) | relative viability (GSK-J4 + Vorinostat; first compound 15.81 µM) | relative viability (GSK-J4 + Vorinostat; first compound 50 µM) | relative viability (AZ3146 + Luminespib; first compound 0.253 µM) | relative viability (AZ3146 + Luminespib; first compound 0.8 µM) | relative viability (AZ3146 + Luminespib; first compound 2.53 µM) | relative viability (AZ3146 + Luminespib; first compound 8 µM) | relative viability (AZ3146 + Tozasertib; first compound 0.08 µM) | relative viability (AZ3146 + Tozasertib; first compound 0.253 µM) | relative viability (AZ3146 + Tozasertib; first compound 0.8 µM) | relative viability (AZ3146 + Tozasertib; first compound 2.53 µM) | relative viability (AZ3146 + Tozasertib; first compound 8 µM) | relative viability (AZ3146 + Olaparib; first compound 0.253 µM) | relative viability (AZ3146 + Olaparib; first compound 0.8 µM) | relative viability (AZ3146 + Olaparib; first compound 2.53 µM) | relative viability (AZ3146 + Olaparib; first compound 8 µM) | relative viability (AZ3146 + Luminespib; first compound 0.08 µM) | relative viability (AZ3146 + Olaparib; first compound 0.08 µM)
BEN | 0.559 | 0.46 | 0.511 | 0.571 | 0.505 | 0.224 | 0.637 | 0.282 | 0.269 | 0.402 | 0.509 | 0.493 | 0.512 | 0.406 | 1.07 | 1.12 | 0.899 | 0.917 | – | –
NCI-H2009 | 0.731 | 0.622 | 0.56 | 0.682 | 0.259 | 1.06 | 0.973 | 1.06 | 0.999 | 0.669 | 0.689 | 0.463 | 0.557 | 0.434 | 0.662 | 0.742 | 0.649 | 0.604 | 0.996 | 0.642
NCI-H1755 | 0.675 | 0.638 | 0.694 | 0.577 | 0.536 | 0.365 | 0.537 | 0.966 | 0.696 | 0.519 | 0.696 | 0.678 | 0.766 | 0.588 | 0.892 | 0.89 | 0.945 | 0.923 | 0.415 | 0.867
NCI-H520 | 0.644 | 0.527 | 0.69 | 0.659 | 0.648 | 0.214 | 0.223 | 0.255 | 0.248 | 0.345 | 0.433 | 0.371 | 0.423 | 0.408 | 0.352 | 0.396 | 0.418 | 0.289 | 0.243 | 0.306
LOU-NH91 | 1.02 | 0.868 | 0.668 | 0.841 | 0.902 | 0.405 | 0.374 | 0.377 | 0.385 | 0.453 | 0.668 | 0.664 | 0.525 | 0.365 | 0.91 | 0.972 | 0.904 | 0.925 | 0.351 | 0.922
LU99A | 0.47 | 0.344 | – | 0.476 | 0.319 | 0.236 | 0.327 | 0.262 | 0.477 | 0.279 | 0.269 | 0.248 | 0.238 | 0.245 | 0.26 | 0.24 | 0.271 | 0.257 | 0.247 | –
PC-14 | 0.721 | 0.66 | 0.565 | 0.63 | 0.509 | 0.169 | – | 0.252 | 0.159 | 0.33 | 0.589 | 0.543 | 0.386 | 0.0776 | 0.319 | 0.259 | 0.225 | 0.0944 | 0.162 | 0.286
LC-2-ad | 0.787 | 0.529 | 0.325 | 0.704 | 0.528 | 1.16 | 1.08 | 1.09 | 1.07 | 0.323 | 0.44 | 0.424 | 0.365 | 0.269 | 0.724 | 0.697 | 0.733 | 0.658 | 0.877 | 0.697
NCI-H2126 | 0.762 | 0.659 | 0.872 | 0.572 | 0.567 | 0.942 | 0.919 | 0.919 | 0.767 | 0.71 | 0.803 | 0.722 | 0.378 | 0.234 | 0.898 | 0.897 | 0.967 | 0.862 | 0.882 | 0.908
